{
  "source": "paper PMC10233829",
  "about": "(ACS Omega, 2023)",
  "key": {"[1]": {"tested_on": "S. aureus NCTC 4163", "assay": "MIC, twofold microdilution, standard strain", "format": "cell-based", "settings": "Staphylococcus aureus, NCTC4163, 18 h"}, "[2]": {"tested_on": "S. aureus ATCC 25923", "assay": "MIC, twofold microdilution, standard strain", "format": "cell-based", "settings": "Staphylococcus aureus, ATCC25923, 18 h"}, "[3]": {"tested_on": "S. aureus ATCC 6538", "assay": "MIC, twofold microdilution, standard strain", "format": "cell-based, Staphylococcus aureus", "settings": "Staphylococcus aureus, ATCC6538; standard strain, 18 h"}, "[4]": {"tested_on": "S. aureus ATCC 29213", "assay": "MIC, twofold microdilution, standard strain", "format": "cell-based", "settings": "Staphylococcus aureus, ATCC29213, 18 h"}, "[5]": {"tested_on": "S. epidermidis ATCC 12228", "assay": "MIC, twofold microdilution, standard strain", "format": "cell-based", "settings": "Staphylococcus epidermidis, ATCC12228, 18 h"}, "[6]": {"tested_on": "S. epidermidis ATCC 35984", "assay": "MIC, twofold microdilution, standard strain", "format": "cell-based", "settings": "Staphylococcus epidermidis, ATCC35984, 18 h"}, "[7]": {"tested_on": "P. aeruginosa ATCC 15442", "assay": "MIC, twofold microdilution, standard strain", "format": "cell-based, Pseudomonas aeruginosa", "settings": "Pseudomonas aeruginosa, ATCC15442; standard strain, 18 h"}, "[8]": {"tested_on": "E. coli ATCC 25922", "assay": "MIC, twofold microdilution, standard strain", "format": "cell-based, Escherichia coli", "settings": "Escherichia coli, ATCC25922; standard strain, 18 h"}, "[9]": {"tested_on": "S. aureus 180", "assay": "MIC, twofold microdilution, clinical strain", "format": "cell-based", "settings": "Staphylococcus aureus, 18 h"}, "[10]": {"tested_on": "S. aureus 5595", "assay": "MIC, twofold microdilution, clinical strain", "format": "cell-based", "settings": "Staphylococcus aureus, 18 h"}, "[11]": {"tested_on": "S. aureus T5595", "assay": "MIC, twofold microdilution, clinical strain", "format": "cell-based, Staphylococcus aureus", "settings": "Staphylococcus aureus, T5595, 18 h"}, "[12]": {"tested_on": "S. aureus T5591", "assay": "MIC, twofold microdilution, clinical strain", "format": "cell-based, Staphylococcus aureus", "settings": "Staphylococcus aureus, T5591, 18 h"}, "[13]": {"tested_on": "S. epidermidis 4341", "assay": "MIC, twofold microdilution, clinical strain", "format": "cell-based", "settings": "Staphylococcus epidermidis, 18 h"}, "[14]": {"tested_on": "S. epidermidis 5253", "assay": "MIC, twofold microdilution, clinical strain", "format": "cell-based, Staphylococcus epidermidis", "settings": "Staphylococcus epidermidis, 5253, 18 h"}, "[15]": {"tested_on": "S. epidermidis KR4243/1", "assay": "MIC, twofold microdilution, clinical strain", "format": "cell-based", "settings": "Staphylococcus epidermidis, 18 h"}, "[16]": {"tested_on": "S. pasteuri KR 4358", "assay": "MIC, twofold microdilution, clinical strain", "format": "cell-based", "settings": "Staphylococcus pasteuri, KR4358, 18 h"}, "[17]": {"tested_on": "P. aeruginosa 37", "assay": "MIC, twofold microdilution, clinical strain", "format": "cell-based", "settings": "Pseudomonas aeruginosa, 18 h"}, "[18]": {"tested_on": "P. aeruginosa 659", "assay": "MIC, twofold microdilution, clinical strain", "format": "cell-based", "settings": "Pseudomonas aeruginosa, 18 h"}, "[19]": {"tested_on": "E. coli 951", "assay": "MIC, twofold microdilution, clinical strain", "format": "cell-based", "settings": "Escherichia coli, 18 h"}, "[20]": {"tested_on": "E. coli 520", "assay": "MIC, twofold microdilution, clinical strain", "format": "cell-based", "settings": "Escherichia coli, 18 h"}, "[21]": {"tested_on": "E. coli 600", "assay": "MIC, twofold microdilution, clinical strain", "format": "cell-based, Escherichia coli", "settings": "Escherichia coli, 600, 18 h"}, "[22]": {"tested_on": "E. cloacae 8", "assay": "MIC, twofold microdilution, clinical strain", "format": "cell-based, Escherichia cloacae", "settings": "Enterobacter cloacae, 8; clinical strain, 18 h"}, "[23]": {"tested_on": "K. pneumoniae 28", "assay": "MIC, twofold microdilution, clinical strain", "format": "cell-based", "settings": "Klebsiella pneumoniae, 18 h"}, "[24]": {"tested_on": "K. pneumoniae 510", "assay": "MIC, twofold microdilution, clinical strain", "format": "cell-based, Klebsiella pneumoniae", "settings": "Klebsiella pneumoniae, 510; clinical strain, 18 h"}, "[25]": {"tested_on": "M. tuberculosis H37Rv", "assay": "Tuberculostatic activity, Microplate Alamar Blue Assay (MIC)", "format": "cell-based, Mycobacterium tuberculosis", "settings": "Mycobacterium tuberculosis, H37RV; MABA; read-out: MIC M. tuberculosis H37Rv"}, "[26]": {"tested_on": "M. tuberculosis Spec. 192", "assay": "Tuberculostatic activity, Microplate Alamar Blue Assay (MIC)", "format": "cell-based", "settings": "Mycobacterium tuberculosis, MABA, read-out: MIC M. tuberculosis Spec. 192 (sensitive to tuberculostatics)"}, "[27]": {"tested_on": "PC3 cells", "assay": "MTT assay, cytotoxic activity", "format": "cell-based, human", "settings": "Homo sapiens, PC-3, 72 h, MTT, 72 h", "how_it_was_run": "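PC3 cells were grown at 37 °C/5% CO2 and exposed to test compounds. Viability came from MTT reduction, as test absorbance over untreated-control absorbance × 100%.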"}, "[28]": {"assay": "MTT assay, cytotoxic activity", "format": "cell-based", "settings": "human, HaCaT cells (immortal keratinocytes); MTT, 72 h, normal cell line; read-out: IC50 HaCaT", "how_it_was_run": "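MTT assay on cells grown at 37 °C/5% CO2. Viability is expressed as relative MTT reduction: test absorbance divided by untreated-control absorbance, ×100%.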"}, "[29]": {"tested_on": "clinical bacterial strains", "assay": "MIC, clinical isolates as groups of strains", "format": "cell-based", "settings": "S. aureus T5595 and T5591"}},
  "data": [
    {"smiles": "O=C(O)c1cn(C2CC2)c2cc(N3CCN(C(=O)CCC(F)(F)F)CC3)c(F)cc2c1=O", "note": "[Compound 15, 7-[4-(4,4,4-Trifluorobutyryl)-piperazin-1-yl]-1-cyclopropyl-6-fluoro-4-oxo-1,4-dihydro-quinoline-3-carboxylic Acid]", "values": [
      {"measurement": "MIC", "setting": "[1]", "value": 0.2, "unit": "µg/mL"},
      {"measurement": "MIC", "setting": "[2]", "value": 0.2, "unit": "µg/mL"},
      {"measurement": "MIC", "setting": "[3]", "value": 0.2, "unit": "µg/mL"},
      {"measurement": "MIC", "setting": "[4]", "value": 0.2, "unit": "µg/mL"},
      {"measurement": "MIC", "setting": "[5]", "value": 0.2, "unit": "µg/mL"},
      {"measurement": "MIC", "setting": "[6]", "value": 0.2, "unit": "µg/mL"},
      {"measurement": "MIC", "setting": "[7]", "value": 1, "unit": "µg/mL"},
      {"measurement": "MIC", "setting": "[8]", "value": 1.6, "unit": "µg/mL"},
      {"measurement": "MIC", "setting": "[9]", "value": 0.5, "unit": "µg/mL"},
      {"measurement": "MIC", "setting": "[10]", "value": 0.5, "unit": "µg/mL"},
      {"measurement": "MIC", "setting": "[11]", "value": 0.4, "unit": "µg/mL"},
      {"measurement": "MIC", "setting": "[12]", "value": 0.4, "unit": "µg/mL"},
      {"measurement": "MIC", "setting": "[13]", "value": "> 25.6", "unit": "µg/mL"},
      {"measurement": "MIC", "setting": "[14]", "value": "> 25.6", "unit": "µg/mL"},
      {"measurement": "MIC", "setting": "[15]", "value": 0.2, "unit": "µg/mL"},
      {"measurement": "MIC", "setting": "[16]", "value": 0.2, "unit": "µg/mL"},
      {"measurement": "MIC", "setting": "[17]", "value": "> 25.6", "unit": "µg/mL"},
      {"measurement": "MIC", "setting": "[18]", "value": "> 25.6", "unit": "µg/mL"},
      {"measurement": "MIC", "setting": "[19]", "value": "> 25.6", "unit": "µg/mL"},
      {"measurement": "MIC", "setting": "[20]", "value": 3.2, "unit": "µg/mL"},
      {"measurement": "MIC", "setting": "[21]", "value": 3.2, "unit": "µg/mL"},
      {"measurement": "MIC", "setting": "[22]", "value": "> 25.6", "unit": "µg/mL"},
      {"measurement": "MIC", "setting": "[23]", "value": "> 25.6", "unit": "µg/mL"},
      {"measurement": "MIC", "setting": "[24]", "value": "> 25.6", "unit": "µg/mL"},
      {"measurement": "MIC", "setting": "[25]", "value": 64, "unit": "µg/mL"},
      {"measurement": "MIC", "setting": "[26]", "value": 64, "unit": "µg/mL"},
      {"measurement": "IC50", "setting": "[27]", "value": "15.7 ± 3.8", "unit": "µM"},
      {"measurement": "IC50 at 72 h", "setting": "[28]", "value": "85.5 ± 9.2", "unit": "µM"},
      {"measurement": "share of the reference (CP) activity", "setting": "[29]", "value": 62.5, "unit": "%"}
    ]}
  ]
}
